Reference: patent US8278105B2, “Induction, propagation and isolation of liver progenitor cells” (University of Southern California, priority 2008, dated 2012)

Tested on: HES2 or HES3 cells
Experiment: 3i-induction of hepatocyte-like cells from human ES cells; dosages of medium components examined
Type: cell-based
Protocol: HES2 or 3 cells were cultured for 5 days on MEF-feeders with 20% FCS hES medium in organ culture dishes. […] Cells were detached as clumps by collagenase and feeder cells were removed by sedimentation in DMEM/F-12 medium.
They were subsequently propagated using 3i or Kubota's medium following enzymatic dissection.
HES2 or 3 cells were cultured 5 days on MEF-feeders with 20% FCS hES medium in organ culture dishes.
Cells were detached as clumps by collagenase and feeder cells were removed by sedimentation in DMEM/F-12 medium.

Question: Which results are given for `O=C(NOCC1CC1)c1ccc(F)c(F)c1Nc1ccc(I)cc1Cl` [PD184352]?
Answer: effect on hepatic differentiation (PD184352 0.4 μM, in combination of SU5402, PD184352 and CHIR99021): decreased hepatic differentiation and increased trophectodermal cells; effect on hepatic differentiation (PD184352 0.8 μM, in combination of SU5402, PD184352 and CHIR99021): most efficient; effect on hepatic differentiation (PD184352 1.6 μM, in combination of SU5402, PD184352 and CHIR99021): no difference from 0.8 μM

Question: For `c1cc(-c2cnn3cc(-c4ccc(OCCN5CCCCC5)cc4)cnc23)ccn1` [Dorsomorphin], which “toxicity to the culture” value (Dorsomorphin 5 μM, in combination of PD0325901, CHIR99021 and Dorsomorphin) is on record?
Answer: toxic

Question: Which “effect on hepatic differentiation” value (SU5402 1 μM, in combination of SU5402, PD184352 and CHIR99021) does the source give for `Cc1c[nH]c(/C=C2\C(=O)Nc3ccccc32)c1CCC(=O)O` [SU5402, 3-[3-(2-Carboxyethyl)-4-methylpyrrol-2-methylidenyl]-2-indolinone] here?
Answer: decreased hepatic differentiation and increased trophectodermal/neural cells

Question: And the “effect on hepatic differentiation” value (SU5402 2 μM, in combination of SU5402, PD184352 and CHIR99021)?
Answer: most efficient

Question: And the “toxicity to the culture” value (SU5402 4 μM, in combination of SU5402, PD184352 and CHIR99021)?
Answer: toxic

Question: `O=C(NOC[C@H](O)CO)c1ccc(F)c(F)c1Nc1ccc(I)cc1F` [PD0325901] was tested. Which “efficiency of hepatic differentiation compared with 3i” value (PD0325901 0.4 μM, in combination of PD0325901 and CHIR99021) did it give?
Answer: no difference from 3i

Question: And the “efficiency of hepatic differentiation compared with 3i” value (PD0325901 0.8 μM, in combination of PD0325901 and CHIR99021)?
Answer: more efficient than 3i

Question: And the “efficiency of hepatic differentiation” value (PD0325901 1.6 μM, in combination of PD0325901 and CHIR99021)?
Answer: no difference from 0.8 μM
